Measured values reported in PubChem BioAssay AID228 (DTP/NCI, 2004).
“And” between values parts separate entries of the source, which are not always exact repeats. Identical values can stand only once. Records with an inconclusive call do not appear.

Tested on: BDF1 mice, Friend leukemia sc, tumor weight T/C
Assay: NCI In Vivo Anticancer Drug Screen. Data for tumor model Friend Virus Leukemia (Solid) (subcutaneous) in B6D2F1 (BDF1) mice
Settings: endpoint: mean tumor weight, higher = larger tumour
Procedure: The antitumor activity of compounds was measured in mice bearing transplantable tumors. Survival or tumor size were measured and the results are expressed as the measurement made in the treated group (T) divided by the measurement made in the vehicle treated control group (C). The tumor model used in this assay is Friend Virus Leukemia (Solid) (subcutaneous) in B6D2F1 (BDF1) mice

[1] = dose: 62.5 mg/kg/injection, schedule: Q01DX011 (ip), vehicle: carboxymethylcellulose (CMC)
[2] = dose: 125.0 mg/kg/injection, schedule: Q01DX011 (ip), vehicle: carboxymethylcellulose (CMC)
[3] = dose: 250.0 mg/kg/injection, schedule: Q01DX011 (ip), vehicle: carboxymethylcellulose (CMC)

CC(=O)[C@H]1CC[C@H]2[C@@H]3CCC4=CC(=O)CC[C@]4(C)[C@H]3CC[C@]12C
T/C (dose: 250.0 mg/kg/injection, schedule: Q01DX011 (sc), vehicle: steriod suspending solution): 228 % of control
T/C (dose: 500.0 mg/kg/injection, schedule: Q01DX011 (sc), vehicle: steriod suspending solution): 165 % of control
T/C (dose: 750.0 mg/kg/injection, schedule: Q01DX011 (sc), vehicle: steriod suspending solution): 212 % of control
T/C (dose: 1000.0 mg/kg/injection, schedule: Q01DX011 (sc), vehicle: steriod suspending solution): 291 % of control

COc1ccc(-c2coc3cc(OC)c(OC)c(OC)c3c2=O)cc1
T/C (dose: 50.0 mg/kg/injection, schedule: Q01DX011 (sc), vehicle: steriod suspending solution): 299 % of control
T/C (dose: 100.0 mg/kg/injection, schedule: Q01DX011 (sc), vehicle: steriod suspending solution): 250 % of control
T/C (dose: 200.0 mg/kg/injection, schedule: Q01DX011 (sc), vehicle: steriod suspending solution): 275 % of control

C[C@H]1C(=O)O[C@@H]2CCN3CC=C(COC(=O)[C@](C)(O)[C@@]1(C)O)[C@H]23
T/C (dose: 31.0 mg/kg/injection, schedule: Q01DX011 (ip), vehicle: carboxymethylcellulose (CMC)): 95 % of control
T/C [1]: 61 % of control
T/C [2]: 66 % of control
T/C [3]: 38 % of control

C[C@]12CC[C@@H]3c4ccc(OC(=O)c5ccccc5)cc4CC[C@H]3[C@@H]1CC[C@@H]2O
T/C (dose: 77.25 mg/kg/injection, schedule: Q01DX011 (sc), vehicle: steriod suspending solution): 102 % of control
T/C (dose: 154.5 mg/kg/injection, schedule: Q01DX011 (sc), vehicle: steriod suspending solution): 112 % of control

CC1NC(=O)NC1CCCCCC(=O)O (configuration not stated)
T/C (dose: 89.0 mg/kg/injection, schedule: Q01DX011 (ip), vehicle: carboxymethylcellulose (CMC)): 169 % of control
T/C (dose: 178.0 mg/kg/injection, schedule: Q01DX011 (ip), vehicle: carboxymethylcellulose (CMC)): 119 % of control

CCOC(N)=O
T/C (dose: 37.5 mg/kg/injection, schedule: Q01DX011 (ip), vehicle: carboxymethylcellulose (CMC)): 68 % of control
T/C (dose: 62.12 mg/kg/injection, schedule: Q01DX011 (ip), vehicle: carboxymethylcellulose (CMC)): 110 % of control
T/C [1]: 58 % of control
T/C (dose: 75.0 mg/kg/injection, schedule: Q01DX011 (ip), vehicle: carboxymethylcellulose (CMC)): 50 % of control
T/C [2]: 67 % of control
T/C (dose: 125.25 mg/kg/injection, schedule: Q01DX011 (ip), vehicle: carboxymethylcellulose (CMC)): 95 % of control
T/C (dose: 150.0 mg/kg/injection, schedule: Q01DX011 (ip), vehicle: carboxymethylcellulose (CMC)): 52 % of control and 36 % of control
T/C [3]: 58 % of control and 66 % of control and 50 % of control
T/C (dose: 250.5 mg/kg/injection, schedule: Q01DX011 (ip), vehicle: carboxymethylcellulose (CMC)): 115 % of control
T/C (dose: 300.0 mg/kg/injection, schedule: Q01DX011 (ip), vehicle: carboxymethylcellulose (CMC)): 21 % of control
T/C (dose: 334.0 mg/kg/injection, schedule: Q01DX011 (ip), vehicle: carboxymethylcellulose (CMC)): 56 % of control and 37 % of control
T/C (dose: 450.0 mg/kg/injection, schedule: Q01DX011 (ip), vehicle: carboxymethylcellulose (CMC)): 20 % of control
T/C (dose: 600.0 mg/kg/injection, schedule: Q01DX011 (ip), vehicle: carboxymethylcellulose (CMC)): 26 % of control
T/C (dose: 800.0 mg/kg/injection, schedule: Q01DX011 (ip), vehicle: carboxymethylcellulose (CMC)): 36 % of control

Nc1nc(N)c(N=Nc2ccccc2)c(=O)[nH]1
T/C (dose: 50.0 mg/kg/injection, schedule: Q01DX011 (ip), vehicle: carboxymethylcellulose (CMC)): 74 % of control
T/C (dose: 100.0 mg/kg/injection, schedule: Q01DX011 (ip), vehicle: carboxymethylcellulose (CMC)): 70 % of control
T/C (dose: 200.0 mg/kg/injection, schedule: Q01DX011 (ip), vehicle: carboxymethylcellulose (CMC)): 60 % of control

Nc1nc(F)nc2c1ncn2C1OC(CO)C(O)C1O (configuration not stated)
T/C (dose: 0.06 mg/kg/injection, schedule: Q01DX011 (ip), vehicle: saline): 155 % of control
T/C (dose: 0.12 mg/kg/injection, schedule: Q01DX011 (ip), vehicle: saline): 120 % of control
T/C (dose: 0.75 mg/kg/injection, schedule: Q01DX011 (ip), vehicle: saline): 225 % of control
T/C (dose: 1.5 mg/kg/injection, schedule: Q01DX011 (ip), vehicle: saline): 203 % of control
T/C (dose: 3.0 mg/kg/injection, schedule: Q01DX011 (ip), vehicle: saline): 199 % of control
